A word on the EC50: it is the concentration giving half of the maximal effect.

One assay addresses T1, Polyunsaturated fatty acid 5-lipoxygenase (Homo sapiens, UniProt P09917).
T1 sequence (P09917 whole entry): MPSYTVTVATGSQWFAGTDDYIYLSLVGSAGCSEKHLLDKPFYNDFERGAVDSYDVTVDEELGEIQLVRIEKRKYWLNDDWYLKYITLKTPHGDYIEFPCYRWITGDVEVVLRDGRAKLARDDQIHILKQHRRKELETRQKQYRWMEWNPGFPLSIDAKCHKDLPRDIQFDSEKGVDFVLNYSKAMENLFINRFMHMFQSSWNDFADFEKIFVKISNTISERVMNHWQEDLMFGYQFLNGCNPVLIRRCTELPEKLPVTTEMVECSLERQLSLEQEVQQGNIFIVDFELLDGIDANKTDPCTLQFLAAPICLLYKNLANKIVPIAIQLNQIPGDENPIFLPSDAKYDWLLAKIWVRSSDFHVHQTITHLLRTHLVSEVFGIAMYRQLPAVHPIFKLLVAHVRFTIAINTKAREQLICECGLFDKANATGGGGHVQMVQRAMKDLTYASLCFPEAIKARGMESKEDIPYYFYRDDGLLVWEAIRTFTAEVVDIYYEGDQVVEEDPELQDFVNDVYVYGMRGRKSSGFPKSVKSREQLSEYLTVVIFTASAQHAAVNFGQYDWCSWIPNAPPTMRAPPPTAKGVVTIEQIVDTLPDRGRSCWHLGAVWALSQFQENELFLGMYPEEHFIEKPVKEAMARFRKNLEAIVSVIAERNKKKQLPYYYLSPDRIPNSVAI
Description: Determination of 5-LO Product Formation in Cell-Free Systems (IC50). The note with it: pH 7.4; 37 °C. On the procedure: For determination of the activity of 5-LO in 100000g supernatants, aliquots of the supernatants were added to reaction mix, and were preincubated with the test compounds before arachidonic acid was added to start 5-LO product formation. Formed 5-LO metabolites were extracted and analyzed by HPLC. 5-LO product includes LTB4 and its all-trans isomers, and 5(S)-hydro(pero)xy-6-trans- 8,11,14-cis-eicosatetraenoic acid. IC50s are expressed as mean +/- SE, obtained from measurements at 4-5 different concentrations of test compounds, and determined using Graphpad Instat (Graphpad Software Inc., San Diego, CA). EC50/IC50 values were obtained from product formation in PMNL intact cells.
Molecule `CCCCCCC(Sc1nc(Cl)cc(Nc2ccc3ncccc3c2)n1)C(=O)OCC` (stereo not given) [ethyl 2-{[4-chloro-6-(quinolin-6-ylamino)pyrimidin-2-yl]sulfanyl}octanoate] had an EC50 of 19000 nM.
Molecule `CCCCCCC(Sc1nc(Cl)cc(NCc2ccc3ncccc3c2)n1)C(=O)OCC` (stereo not given) [ethyl 2-({4-chloro-6-[(quinolin-6-ylmethyl)amino]pyrimidin-2-yl}sulfanyl)octanoate] displayed an EC50 of 37000 nM.

Another assay deals with T1, Polyunsaturated fatty acid 5-lipoxygenase. Description: Determination of 5-LO Product Formation in Intact Cells (EC50/IC50). The note with it: pH 7.4; 37 °C. On the procedure: For assays of intact cells, 5000,000 freshly isolated PMNL cells were resuspended in PGC buffer. After preincubation with the test compounds for 15 min at RT, 5-LO product formation was started by addition of ionophore A23187 plus arachidonic acid. Formed 5-LO metabolites were extracted and analyzed by HPLC. 5-LO product formation is expressed as ng of 5-LO products per 1000,000 cells, which includes LTB4 and its all-trans isomers, and 5(S)-hydro(pero)xy-6-trans- 8,11,14-cis-eicosatetraenoic acid.
Consider `CCCCCCC(Sc1nc(Cl)cc(Nc2cccc(C)c2C)n1)C(=O)O` (stereo not given) [2-({4-chloro-6-[(2,3-dimethylphenyl)amino]pyrimidin-2-yl}sulfanyl)octanoic acid], for which it took 4100 nM to reach a half-maximal effect (EC50).
As for `O=C(O)CSc1nc(Cl)cc(Nc2cccc3c2CCC3)n1` [2-{[4-chloro-6-(2,3-dihydro-1H-inden-4-ylamino)pyrimidin-2-yl]sulfanyl}acetic acid], the EC50 turned out to be 3900 nM.
In the case of `CCOC(=O)C(Sc1nc(Cl)cc(Nc2cccc(C)c2C)n1)c1ccccc1` (stereo not given) [ethyl 2-({4-chloro-6-[(2,3-dimethylphenyl)amino]pyrimidin-2-yl}sulfanyl)-2-phenylacetate], the response was half-maximal at 1800 nM (EC50).
Regarding `CCOC(=O)C(Sc1nc(Cl)cc(Nc2ccc3ncccc3c2)n1)c1ccccc1` (stereo not given) [ethyl 2-{[4-chloro-6-(quinolin-6-ylamino)pyrimidin-2-yl]sulfanyl}-2-phenylacetate], a half-maximal effect (EC50) was put at 1200 nM.
Consider `CCCCCCC(Sc1nc(Cl)cc(Oc2ccc3ncccc3c2)n1)C(=O)OCC` (stereo not given) [ethyl 2-{[4-chloro-6-(quinolin-6-yloxy)pyrimidin-2-yl]sulfanyl}octanoate], for which a half-maximal response (EC50) required 1700 nM.
`CCCCC(Sc1nc(Cl)cc(Nc2ccc3ncccc3c2)n1)C(=O)OCC` (stereo not given) [ethyl 2-{[4-chloro-6-(quinolin-6-ylamino)pyrimidin-2-yl]sulfanyl}hexanoate] yielded an EC50 of 1100 nM.
In turn, `CCOC(=O)CSc1nc(Cl)cc(Nc2ccc3ncccc3c2)n1` [ethyl 2-{[4-chloro-6-(quinolin-6-ylamino)pyrimidin-2-yl]sulfanyl}acetate] returned an EC50 of 2600 nM.
As to `CCOC(=O)CSc1nc(Cl)cc(Nc2cccc3c2CCC3)n1` [ethyl 2-{[4-chloro-6-(2,3-dihydro-1H-inden-4-ylamino)pyrimidin-2-yl]sulfanyl}acetate], the EC50 was found to be 3200 nM.

(Values after BindingDB's records for doi:10.1021/jm800588x (Eberhard Karls University Tuebingen, 2008).)
